Consider one compound from ChEMBL document CHEMBL5052850, “Compounds and methods targeting qsox1” (2021).

Assay [1] deals with 786-0. Description: Antitumor activity in human 786-0 cells xenografted immunodeficient mouse assessed as reduction in tumor growth at 14 mg/kg/day, po. The conditions noted are these: 786-0, po, read-out: TGI. The class given is functional. Background: In xenograft studies the graft and the host belong to different species.
Assay [2] has as its target T1, Sulfhydryl oxidase 1 (Homo sapiens) (UniProt O00391).
T1 sequence (whole entry): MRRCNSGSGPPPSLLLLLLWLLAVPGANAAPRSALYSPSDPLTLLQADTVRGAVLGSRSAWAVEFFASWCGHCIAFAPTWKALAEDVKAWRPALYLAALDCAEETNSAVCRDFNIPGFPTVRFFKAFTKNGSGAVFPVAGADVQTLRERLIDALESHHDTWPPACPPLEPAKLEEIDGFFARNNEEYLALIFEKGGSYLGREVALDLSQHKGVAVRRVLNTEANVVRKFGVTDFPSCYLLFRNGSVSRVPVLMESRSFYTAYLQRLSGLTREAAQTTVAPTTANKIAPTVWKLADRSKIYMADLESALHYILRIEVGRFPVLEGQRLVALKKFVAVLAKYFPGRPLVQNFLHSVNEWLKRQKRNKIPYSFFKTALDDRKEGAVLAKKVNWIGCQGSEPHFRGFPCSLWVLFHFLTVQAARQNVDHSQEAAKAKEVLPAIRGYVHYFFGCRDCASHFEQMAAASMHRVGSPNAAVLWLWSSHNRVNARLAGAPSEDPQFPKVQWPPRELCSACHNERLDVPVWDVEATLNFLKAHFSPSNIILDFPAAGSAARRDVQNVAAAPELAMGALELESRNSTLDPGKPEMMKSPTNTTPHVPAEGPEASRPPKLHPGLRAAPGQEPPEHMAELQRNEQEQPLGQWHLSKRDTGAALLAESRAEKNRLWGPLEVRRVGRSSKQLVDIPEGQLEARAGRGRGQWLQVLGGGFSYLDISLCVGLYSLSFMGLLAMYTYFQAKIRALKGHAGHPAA
Description: Inhibition of QSOX1 (unknown origin) at 6.25 to 50 uM relative to control. Conditions: dose 6.25-50 µM.

The target of a further assay is T2, Sulfhydryl oxidase 1 (Homo sapiens, UniProt O00391).
T2 sequence (O00391 whole entry): T1 sequence (whole entry)
Description: Binding affinity towards QSOX1 (unknown origin) measured by microscale thermophoresis assay.

In assay [3] the test system is 786-0. In words: Antiinvasive activity against human 786-0 cells measured spheroid invasion assay. Format: functional, cell-based.
For another assay, the system named is MCF-10A. In words: Antiinvasive activity against human MCF-10A cells measured spheroid invasion assay. Format: functional, cell-based.
The subject of another assay is MIA PaCa-2. In words: Antiinvasive activity against human MIA PaCa-2 cells measured spheroid invasion assay. Format: functional, cell-based.
Assay [4] deals with MDA-MB-231. Description: Anticancer activity against human MDA-MB-231 cells at 156.25 to 1250 uM assessed as suppression of tumor cell tendrils spreading formation measured by 3D tumor cell spheroid assay. Format: functional, cell-based. The conditions noted are these: dose 156.25-1250 µM.
For another assay, the system named is RCJ-41T2. Description: Antiinvasive activity against human RCJ-41T2 cells at 156.25 to 1250 uM measured spheroid invasion assay. Format: functional, cell-based. Conditions: dose 156.25-1250 µM.
Another assay has as its system UOK117. In words: Antitumor activity in human UOK117 cells xenografted nude mouse assessed as suppression of tumor growth. The class given is functional, cell-based.
Assay [5] concerns MDA-MB-231. Description: Antitumor activity in human MDA-MB-231-Luc cells xenografted immunodeficient mouse assessed as reduction in lung metastasis at 100 mg/kg, po administered for 28 days. The class given is functional. Conditions: time 28 day. More on the design: scale not given: the % may be the effect or the level left.

Each structure is given as a SMILES string. Calls of active or inactive are those of the source. No cut-off for these calls is given here.

With `COc1cccc(C(=O)Nc2ccc(N3CCCC3)cc2)c1`, the inhibition in vivo at 14 mg/kg/day with 786-0 [1] turned out to be 51%. The inhibition result in assay [2] is “Active”. Moreover, the affinity at Sulfhydryl oxidase 1, expressed as Kd, was 20 µM. For the same compound, the result with 786-0 [3], with MCF-10A, in the assay with MIA PaCa-2, in the assay on MDA-MB-231 [4], in the assay with RCJ-41T2 and with UOK117 was Active. Further, in the assay with MDA-MB-231 [5], the Activity was 76%.

One may read the Kd as the free concentration of one partner at which half of the binding sites on the other are occupied at equilibrium, for simple one-to-one binding.
